In patent US4774251A, “Method of inhibiting aromatase” (Eli Lilly and Company, priority 1984, dated 1988):
Read-outs that look alike come from different tables or passages of the source.

Legend:
[1] = target: T1, aromatase (Rattus norvegicus, UniProt P22443); test: Aromatase inhibition in the rat ovarian microsome assay; format: biochemical
T1 construct: ovarian microsomes are obtained from rats treated with pregnant mares serum gonadotropin; from tissue; host or cells: ovarian microsomes from rats treated with pregnant mares serum gonadotropin
T1 sequence (P22443 1-508): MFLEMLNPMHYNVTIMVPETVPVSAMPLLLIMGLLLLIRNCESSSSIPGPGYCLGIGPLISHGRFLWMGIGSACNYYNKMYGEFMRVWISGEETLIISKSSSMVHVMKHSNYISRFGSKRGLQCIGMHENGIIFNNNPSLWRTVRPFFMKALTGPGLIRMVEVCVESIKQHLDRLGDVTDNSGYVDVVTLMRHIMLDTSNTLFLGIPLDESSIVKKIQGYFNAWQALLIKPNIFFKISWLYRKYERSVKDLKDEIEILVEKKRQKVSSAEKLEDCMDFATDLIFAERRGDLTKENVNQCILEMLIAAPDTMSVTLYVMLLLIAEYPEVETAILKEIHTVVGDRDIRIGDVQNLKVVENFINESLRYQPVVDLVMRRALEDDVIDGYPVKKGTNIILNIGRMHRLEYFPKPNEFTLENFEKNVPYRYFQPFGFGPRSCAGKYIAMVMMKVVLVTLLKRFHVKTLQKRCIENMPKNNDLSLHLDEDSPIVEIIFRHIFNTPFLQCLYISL
Procedure: In this test system, ovarian microsomes are obtained from rats treated with pregnant mares serum gonadotropin. Test compounds are added to reaction vials containing 0.1 μM 4-androstene-3,17-dione, 100,000 dpm 1,2[^3 H]-androstenedione, the microsomes and a NADPH generating system. The concentrations of the inhibitors tested ranged between 0.005 and 10 μM.

[2] = tested on: uterus (weight stimulated by estrogens produced by aromatization); test: Estrogen synthesis inhibition in rats: uterine weight after testosterone propionate; format: in vivo, rat (immature female Wistar); conditions: 7 days, testosterone-treated control: Test I 180.3, Test II 210.4, corn oil control: 66.7, 101.4
Procedure: Immature female Wistar rats (45-55 grams) were divided into control and test groups of 4-8 animals each. Test compounds were administered for seven days as a component of the diet. Control animals received diet without the test compound. Beginning on the fourth day of the test, all animals treated with the test compound and one half of the control animals were given a subcutaneous injection of 1.0 mg of testosterone propionate in corn oil. The remaining control animals received only an equivalent volume of corn oil. On the seventh day of the test, rats treated with testosterone propionate were injected subcutaneously with 100 μCi of [^3 H]-testosterone in 50 μl of 3:1 (v/v) saline-ethanol.
After two hours, the animals were killed by decapitation. Uteri were isolated, trimmed of extraneous connective tissue, and weighted. […] In the control animals treated with testosterone propionate, estrogens produced by aromatization stimulated the uterus resulting in an increase in weight.

[3] = tested on: estrogen synthesis (ovarian estradiol, estrone, estriol); test: Estrogen synthesis inhibition in rats: ovarian steroid concentrations after [3H]-testosterone; format: in vivo, rat (immature female Wistar); conditions: 7 days, ovary; for Mean Steroid Concentration, estriol: testosterone-treated control: Test I 0.41, Test II 0.17; for Mean Steroid Concentration, estrone: testosterone-treated control: Test I 0.88, Test II 0.41; for Mean Steroid Concentration, estradiol: testosterone-treated control: Test I 2.29, Test II 0.78
Procedure: The ovarian steroids were extracted with 1.5 ml of 9:1 (v/v) toluene/ethanol to which had been added 25 to 100 mcg each of unlabelled estradiol, estriol, and estrone, and approximately 1000 dpm of [^14 C]-estradiol. The samples were vortexed, centrifuged at 500×g for 10 minutes, and the organic phase was transferred to a conical vial. Two additional extractions were performed on the residue in the same way. The pooled organic extract were evaporated for subsequent thin-layer chromatography.
The organic residue from each above extraction was redissolved in 9:1 (v/v) dichloromethane/methanol. The solution of each sample was applied to separate silica gel thin layer chromatography plates which contained a fluorescent indicator. The plates were developed in the first dimension with 160:38:1.5:0.5 (v/v/v/v) dichloromethane/ethyl acetate/methanol/acetic acid to within 3 cm of the top of the plate. After air-drying, the plate was developed in the second dimension with 180:19:1 (v/v/v) dichloromethane/methanol/ammonium hydroxide.
The spots were scraped from the plate using a glass wool plugged Pasteur pipet attached to a vacuum line. The steroids were eluted directly into scintillation vials by the addition of 0.2 ml of dichloromethane followed by two washes each of 2.0 ml of methanol. The organic solvent was evaporated and 10.0 ml of scintillation fluid (Beckman Ready Solv-NA) was added to the vials. Samples were analyzed by liquid scintillation spectrometry. Corrections were made based on the recoveries of the [^14 C]-steroid. Steroid concentrations are expressed as femtomoles per milligram protein.

[4] = rat ovarian microsomes, substrate 4-androstene-3,17-dione 0.1 μM, [3H]-H2O release
[5] = 30 ppm in feed (approx. 3 mg/kg/day)
[6] = 300 ppm in feed (approx. 30 mg/kg/day)

SMILES: C=CCN(Cc1cccnc1)c1ccc(Cl)cc1Cl [N--(2,4-dichlorophenyl)-N--(2-propenyl)-3-pyridinemethanamine]
- EC50 [1, 4]: 750 nM

SMILES: C#CCN(Cc1cccnc1)c1ccc(Cl)cc1Cl [N--(2,4-dichlorophenyl)-N--(2-propynyl)-3-pyridinemethanamine]
- EC50 [1]: 165 nM

SMILES: Clc1ccc(N(Cc2ccccc2)Cc2cccnc2)c(Cl)c1 [N--(2,4-dichlorophenyl)-N--benzyl-3-pyridinemethanamine]
- EC50 [1, 4]: 310 nM

SMILES: CCCCCCN(Cc1cccnc1)c1ccc(Cl)cc1Cl [N--(2,4-dichlorophenyl)-N--hexyl-3-pyridinemethanamine]
- EC50 [1]: 1200 nM

SMILES: Fc1ccc(N(Cc2ccccc2)Cc2cccnc2)c(F)c1 [N--(2,4-difluorophenyl)-N--benzyl-3-pyridinemethanamine]
- EC50 [1, 4]: < 50 nM
- Mean Uterine Weight [2, 5]: 196.3 mg
- Mean Uterine Weight [2, 6]: 171.4 mg
- Mean Steroid Concentration, estriol [3, 5]: 0.44 femtomoles per milligram of protein
- Mean Steroid Concentration, estrone [3, 5]: 0.00 femtomoles per milligram of protein
- Mean Steroid Concentration, estradiol [3, 5]: 0.84 femtomoles per milligram of protein
- Mean Steroid Concentration, estriol [3, 6]: 0.32 femtomoles per milligram of protein
- Mean Steroid Concentration, estrone [3, 6]: 0.00 femtomoles per milligram of protein
- Mean Steroid Concentration, estradiol [3, 6]: 0.44 femtomoles per milligram of protein

SMILES: CC=CCN(Cc1cccnc1)c1ccc(Cl)cc1Cl [N--(2-butenyl)-N--(2,4-dichlorophenyl)-3-pyridinemethanamine]
- EC50 [1]: 359 nM

SMILES: Fc1ccc(C(Nc2ccccc2Cl)c2cccnc2)cc1 (stereo not drawn) [N--(2-chlorophenyl)-α-(4-fluorophenyl)-3-pyridinemethanamine]
- EC50 [1, 4]: 80 nM
- Mean Uterine Weight [2, 5]: 154.3 mg
- Mean Uterine Weight [2, 6]: 157.4 mg
- Mean Steroid Concentration, estriol [3, 5]: 0.51 femtomoles per milligram of protein
- Mean Steroid Concentration, estrone [3, 5]: 0.47 femtomoles per milligram of protein
- Mean Steroid Concentration, estradiol [3, 5]: 2.67 femtomoles per milligram of protein
- Mean Steroid Concentration, estriol [3, 6]: 0.37 femtomoles per milligram of protein
- Mean Steroid Concentration, estrone [3, 6]: 0.31 femtomoles per milligram of protein
- Mean Steroid Concentration, estradiol [3, 6]: 1.64 femtomoles per milligram of protein

SMILES: CC(c1cccnc1)N(C)c1ccc(Cl)cc1 (stereo not drawn) [N--(4-chlorophenyl)-N,α-dimethyl-3-pyridinemethanamine]
- EC50 [1, 4]: 2000 nM

SMILES: CN(c1ccc(Cl)cc1)C(c1ccccc1)c1cccnc1 (stereo not drawn) [N--(4-chlorophenyl)-N--methyl-α-phenyl-3-pyridinemethanamine]
- EC50 [1, 4]: 2500 nM

SMILES: CC(c1cccnc1)N(Cc1ccccc1)c1ccc(Cl)cc1 (stereo not drawn) [N--(4-chlorophenyl)-α-methyl-N--benzyl-3-pyridinemethanamine]
- EC50 [1, 4]: 1200 nM

SMILES: CCCCN(Cc1cccnc1)c1ccc(C)cc1C [N--butyl-N--(2,4-dimethylphenyl)-3-pyridinemethanamine]
- EC50 [1, 4]: 630 nM

SMILES: CCCCN(c1ccc(Cl)cc1)C(c1ccccc1)c1cccnc1 (stereo not drawn) [N--butyl-N--(4-chlorophenyl)-α-phenyl-3-pyridinemethanamine]
- EC50 [1, 4]: 290 nM

SMILES: CCCCN(c1ccc(F)cc1)C(C)c1cccnc1 (stereo not drawn) [N--butyl-N--(4-fluorophenyl)-α-methyl-3-pyridinemethanamine]
- EC50 [1, 4]: 370 nM

SMILES: CCCCN(Cc1ccc(Cl)cc1)c1cnccn1 [N--butyl-N--[(4-chlorophenyl)methyl]pyrazinamine]
- EC50 [1, 4]: 740 nM
